{"source": "paper PMC10610214", "about": "(Pharmaceuticals, 2023)", "key": {"AChE": {"target": "T1, AChE (Electrophorus electricus, UniProt O42275)", "T1 construct": "AChE (from electric eel); purchased Sigma Chemical Company (St. Louis, MO, USA)", "T1 sequence (O42275 24-633)": "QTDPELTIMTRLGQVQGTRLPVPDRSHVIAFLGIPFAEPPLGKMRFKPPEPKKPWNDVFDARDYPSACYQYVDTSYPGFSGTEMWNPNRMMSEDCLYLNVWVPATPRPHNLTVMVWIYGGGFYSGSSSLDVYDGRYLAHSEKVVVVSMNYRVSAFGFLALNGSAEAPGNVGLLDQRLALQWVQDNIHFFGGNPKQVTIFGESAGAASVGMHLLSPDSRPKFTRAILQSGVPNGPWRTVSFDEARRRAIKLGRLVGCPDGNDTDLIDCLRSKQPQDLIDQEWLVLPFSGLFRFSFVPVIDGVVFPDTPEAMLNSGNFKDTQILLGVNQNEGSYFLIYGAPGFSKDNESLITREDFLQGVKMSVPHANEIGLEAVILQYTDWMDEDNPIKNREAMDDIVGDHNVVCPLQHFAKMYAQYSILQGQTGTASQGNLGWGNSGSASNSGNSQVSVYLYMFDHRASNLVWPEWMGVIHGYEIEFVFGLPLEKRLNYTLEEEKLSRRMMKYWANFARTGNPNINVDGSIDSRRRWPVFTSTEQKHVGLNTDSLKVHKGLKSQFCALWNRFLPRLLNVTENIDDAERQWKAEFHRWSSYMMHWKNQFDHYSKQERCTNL", "type": "biochemical", "settings": "for AChE activity after dilution (reversibility): control 100", "procedure": "The activities of the diluted residual enzymes were measured by Ellman’s modified method.\nReversibility studies were performed using a modified Ellman’s dilution method to measure the activity of the diluted residual enzyme. The AChE/BuChE (0.5 U/mL), ATCI/BTCI (0.01 M) and DTNB (0.01 M) were diluted with phosphate buffer pH = 7.4. […] At the end of incubation, 20 μL of DTNB solution was added to them. […] All the measured results are expressed as the mean ± SEM of the three independent experiments."}, "IL-1β in BV2 cells": {"tested_on": "IL-1β in BV2 cells", "assay": "IL-1β secretion in LPS-stimulated BV2 cells (ELISA)", "type": "cell-based", "settings": "Mus musculus, BV-2, 24 h, read-out: IL-1β inhibition IC50", "procedure": "The cytotoxicity of compounds on BV2 cells were evaluated by MTT assay and similar to those described in Section 2.5. The NO concentrations in medium were determined using Griess Reagent assay (Beyotime) in accordance with a previously reported method. Nitrite is reduced to nitrogen oxide using Griess Reagent I. Nitrogen oxide then reacts with Griess Reagent II forming a stable product that can be detected by its absorbance at […]. The two-step assay is simple, fast, and can detect nitrite levels as low as 1 nmol/well. BV2 cells were seeded into a 48-well plate at a density of 6.0 × 10^4 cells per well. After the cells were incubated overnight, the old medium was discarded. Then, the cells were pretreated with various concentrations (10, 5, 1, 0.5, and 0.1 μM) of compounds for 1 h and then co-incubated with LPS (1 μg/mL, 30 μL/well) for 24 h. After 24 h, the cell supernatant (50 μL/well) was placed into a new 96-well plate for experiment. […] The absorbance at […] was measured by a microplate reader.\nThe contents of TNF-α and IL-β in the cell supernatant were measured via ELISA (Jyimei, Wuhan, China) following the manufacturer’s instructions."}, "DPPH radical scavenging": {"assay": "DPPH radical scavenging", "type": "physicochemical", "settings": "vs no-compound group", "procedure": "DPPH is a commercially available stable organic nitrogen radical with maximum UV absorption at 515 nm. After reduction, the color of the solution fades (absorbance decreases). Therefore, this method was used to evaluate the antioxidant capacity of the compounds. In short, 50 μL of DPPH (140 μM) and 50 μL of different concentrations (10, 100, and 1000 μM) of compound 4h were added together in a 96-well plate and then incubated in the dark at 37 °C for 2 h. The absorbance was measured at 515 nm through the multifunctional microplate reader. The scavenging rate (SR) of DPPH radicals was calculated by the following formula: SR = (1 − Ac/A0) × 100%, where “Ac” is the absorbance of DPPH and the compound solution incubating, and “A0” is the absorbance of the DPPH radical-ethanol solution alone. The experimental results are expressed as the average of three tests."}, "[1]": {"assay": "Metal chelation by UV–Vis spectroscopy", "type": "physicochemical", "settings": "20 μM 4h, 1 equivalent CuCl2, methanol/water 1/1", "procedure": "In the wavelength range of 200–600 nm, the metal chelating ability of compound 4h was analyzed by UV–Vis spectroscopy. Specifically, compound 4h (dissolved in DMSO) solutions were prepared with a mixture of methanol and deionized water (1/1). Stock solutions of cation salts (10 mM) were prepared with deionized water and then in the presence or absence of ZnCl2, CuCl2, AlCl3, FeSO4, MgCl2, and CaCl2 (20 μM, final concentration), respectively, and incubated with 4h (20 μM, final concentration) for 1 h at room temperature. The final volume of the reaction mixture was 2 mL. The UV absorption of the test substance was recorded in a 1 cm quartz cell."}, "PC12 cells": {"tested_on": "PC12 cells", "assay": "Cytotoxicity in PC12 cells (MTT)", "type": "cell-based"}, "iNOS": {"tested_on": "iNOS", "assay": "iNOS expression in LPS-stimulated BV2 cells (Western blot)", "type": "cell-based", "settings": "1, 2, 4 μM", "procedure": "BV2 cells were seeded into a 6-well plate at a density of 3.0 × 10^5 cells per well. After incubation overnight, the old medium was discarded. Then, the cells were pretreated with various concentrations (1, 2, and 4 μM) of 4h for 1 h and then co-incubated with LPS (1 μg/mL) for 24 h. After incubation was completed, the cells were washed twice with PBS, and 300 μL of cell lysis buffer (RIRA lysis buffer, phosphatase inhibitor, protease inhibitor, and PMSF) was added to each well. The cells were then incubated on ice for 30 min and centrifuged at 12,000 rpm at 4 °C for 30 min to collect the supernatant. The protein content in the supernatant was detected using the BCA protein detection kit (Beyotime, Shanghai, China). Total proteins were separated by 10% SDS-PAGE and then transferred from the gel to a PVDF membrane (Sigma-Aldrich, Shanghai, China). The membranes were blocked in TBST solution containing 5% skimmed milk for 2 h. Next, the membranes were washed three times (TBST) and incubated with primary antibody dilution (Cell Signaling Technologies, Boston, MA, USA) overnight at 4 °C. Then, they were washed another three times (TBST), incubated with the secondary antibody at room temperature for 90 min, and then washed three times with TBST. The blots were visualized by a chemiluminescence imager (Tanon 5200, Shanghai, China)."}}, "note": "Several values for one entry are separate records, joined by “and”; a condition that tells them apart may be missing. Equal entries are not always repeated. Entries after “also recorded” stand apart in the source; their conditions may differ. Where two headings read alike, the source gives them in different places."}
{"compound": "O=C1c2cc(NS(=O)(=O)c3ccccc3F)ccc2-n2c1nc1ccccc1c2=O", "note": "[4h]", "values": [{"measurement": "Reversibility of AChE inhibition", "setting": "AChE; dilution method", "value": "reversible inhibitor"}, {"measurement": "AChE activity after dilution (reversibility)", "setting": "AChE; final inhibitor 0.1 × IC50 after 100-fold dilution", "value": "87.2 ± 0.92"}, {"measurement": "AChE activity after dilution (reversibility)", "setting": "AChE; final inhibitor 1 × IC50 after 100-fold dilution", "value": "72.3 ± 1.03"}, {"measurement": "IC50", "setting": "IL-1β in BV2 cells", "value": "1780 ± 210", "unit": "nM"}, {"measurement": "Concentration of DPPH (%)", "setting": "DPPH radical scavenging; 10 μM compound", "value": "84.76 ± 4.21% and 84.76%"}, {"measurement": "Concentration of DPPH (%)", "setting": "DPPH radical scavenging; 100 μM compound", "value": "74.6 ± 2.51", "unit": "%"}, {"measurement": "Concentration of DPPH (%)", "setting": "DPPH radical scavenging; 1000 μM compound", "value": "36.51 ± 2.78% and 36.51%"}, {"measurement": "Metal chelating ability (UV–Vis)", "setting": "[1]", "value": "maximum absorption intensity at 261 nm was markedly reduced; also recorded: can chelate Cu^2+"}, {"measurement": "Cell Viability (% of Control)", "setting": "PC12 cells; compound 30 μM, 30 µM", "value": "99.62 ± 0.94 % of Control and 99.6 ± 0.9 % of Control"}, {"measurement": "Cell Viability (% of Control)", "setting": "PC12 cells; compound 50 μM, 50 µM", "value": "99.21 ± 1.57 % of Control and 99.2 ± 1.5 % of Control"}, {"measurement": "iNOS expression", "setting": "iNOS", "value": "significantly decreased the expression of COX-2 and iNOS"}]}
